Reference: ChEMBL document CHEMBL4330132, “5-Keto-3-cyano-2,4-diaminothiophenes as selective maternal embryonic leucine zipper kinase inhibitors” (Bioorg Med Chem Lett, 2019)

Assays:
[1] = system: Tyrosine-protein kinase ABL1 (Homo sapiens), P00519 [T315I]; assay: Binding affinity to human non-phosphorylated ABL1 T315I mutant (S229 to K512 residues) expressed in mammalian expression system assessed as residual binding level at 1 uM by Kinomescan method relative to control
[2] = biological target: Serine/threonine-protein kinase BRSK2 (Homo sapiens) (UniProt Q8IWQ3); assay: Binding affinity to wild-type human full length BRSK2 (M1 to L674 residues) expressed in bacterial expression system assessed as residual binding level at 1 uM by Kinomescan method relative to control
[3] = biological target: Tyrosine-protein kinase BTK (Homo sapiens) (UniProt Q06187); assay: Binding affinity to wild-type human full length BTK (M1 to S659 residues) expressed in mammalian expression system assessed as residual binding level at 1 uM by Kinomescan method relative to control
[4] = biological target: Calcium/calmodulin-dependent protein kinase type 1D (Homo sapiens) (UniProt Q8IU85); assay: Binding affinity to wild-type human partial length CAMK1D (M1 to K299 residues) expressed in bacterial expression system assessed as residual binding level at 1 uM by Kinomescan method relative to control
[5] = biological target: Calcium/calmodulin-dependent protein kinase type IV (Homo sapiens) (UniProt Q16566); assay: Binding affinity to wild-type human partial length CAMK4 (A22 to A322 residues) expressed in bacterial expression system assessed as residual binding level at 1 uM by Kinomescan method relative to control
[6] = biological target: Calcium/calmodulin-dependent protein kinase kinase 1 (Homo sapiens) (UniProt Q8N5S9); assay: Binding affinity to wild-type human partial length CAMKK1 (R65 to E414 residues) expressed in bacterial expression system assessed as residual binding level at 1 uM by Kinomescan method relative to control
Calcium/calmodulin-dependent protein kinase kinase 1 (Homo sapiens), sequence (Q8N5S9 whole entry, looked up, the tested form may be a part): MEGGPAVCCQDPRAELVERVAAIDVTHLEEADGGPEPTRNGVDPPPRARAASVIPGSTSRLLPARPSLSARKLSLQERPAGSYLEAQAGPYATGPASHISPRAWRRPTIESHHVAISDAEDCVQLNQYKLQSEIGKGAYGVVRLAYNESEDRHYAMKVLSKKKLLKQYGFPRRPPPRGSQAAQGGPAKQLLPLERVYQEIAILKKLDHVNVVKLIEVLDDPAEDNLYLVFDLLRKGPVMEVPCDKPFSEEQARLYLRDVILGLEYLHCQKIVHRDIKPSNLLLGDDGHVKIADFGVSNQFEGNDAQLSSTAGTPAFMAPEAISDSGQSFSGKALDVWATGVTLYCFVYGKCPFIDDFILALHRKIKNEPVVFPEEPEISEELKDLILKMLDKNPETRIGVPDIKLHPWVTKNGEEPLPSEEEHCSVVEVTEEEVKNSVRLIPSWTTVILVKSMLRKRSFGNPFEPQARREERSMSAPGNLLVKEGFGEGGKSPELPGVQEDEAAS

[7] = biological target: Cyclin-dependent kinase 7 (Homo sapiens) (UniProt P50613); assay: Binding affinity to wild-type human full length CDK7 (M1 to L344 residues) expressed in mammalian expression system assessed as residual binding level at 1 uM by Kinomescan method relative to control
Cyclin-dependent kinase 7 (Homo sapiens), sequence (P50613 whole entry, the tested form may be a part): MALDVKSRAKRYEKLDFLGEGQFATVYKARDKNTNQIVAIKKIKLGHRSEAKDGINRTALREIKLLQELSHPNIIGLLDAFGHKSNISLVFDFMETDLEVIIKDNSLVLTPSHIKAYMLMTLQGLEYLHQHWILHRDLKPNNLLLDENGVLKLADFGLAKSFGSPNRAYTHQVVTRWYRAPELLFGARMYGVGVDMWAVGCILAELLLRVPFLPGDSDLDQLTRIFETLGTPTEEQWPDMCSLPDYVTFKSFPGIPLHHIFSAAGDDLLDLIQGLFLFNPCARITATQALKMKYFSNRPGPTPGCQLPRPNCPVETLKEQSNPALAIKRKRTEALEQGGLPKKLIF

[8] = biological target: Cyclin-dependent kinase 9 (Homo sapiens) (UniProt P50750); assay: Binding affinity to wild-type human full length CDK9 (M1 to F372 residues) expressed in bacterial expression system assessed as residual binding level at 1 uM by Kinomescan method relative to control
Cyclin-dependent kinase 9 (Homo sapiens), sequence (P50750 whole entry, the tested form may be a part): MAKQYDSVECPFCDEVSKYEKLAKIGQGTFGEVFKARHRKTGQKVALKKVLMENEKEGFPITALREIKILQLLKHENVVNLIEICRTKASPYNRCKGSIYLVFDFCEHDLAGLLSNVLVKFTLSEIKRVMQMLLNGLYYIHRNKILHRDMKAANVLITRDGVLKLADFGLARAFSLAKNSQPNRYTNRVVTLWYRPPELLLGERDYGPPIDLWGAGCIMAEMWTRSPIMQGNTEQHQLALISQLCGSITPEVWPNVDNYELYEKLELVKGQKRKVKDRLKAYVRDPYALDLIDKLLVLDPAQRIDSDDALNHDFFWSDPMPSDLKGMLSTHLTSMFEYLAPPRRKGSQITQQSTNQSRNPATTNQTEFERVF

[9] = biological target: Ephrin type-B receptor 1 (Homo sapiens) (UniProt P54762); assay: Binding affinity to wild-type human partial length EPHB1 (P589 to T911 residues) expressed in bacterial expression system assessed as residual binding level at 1 uM by Kinomescan method relative to control
Ephrin type-B receptor 1 (Homo sapiens), sequence (P54762 whole entry, the tested form may be a part): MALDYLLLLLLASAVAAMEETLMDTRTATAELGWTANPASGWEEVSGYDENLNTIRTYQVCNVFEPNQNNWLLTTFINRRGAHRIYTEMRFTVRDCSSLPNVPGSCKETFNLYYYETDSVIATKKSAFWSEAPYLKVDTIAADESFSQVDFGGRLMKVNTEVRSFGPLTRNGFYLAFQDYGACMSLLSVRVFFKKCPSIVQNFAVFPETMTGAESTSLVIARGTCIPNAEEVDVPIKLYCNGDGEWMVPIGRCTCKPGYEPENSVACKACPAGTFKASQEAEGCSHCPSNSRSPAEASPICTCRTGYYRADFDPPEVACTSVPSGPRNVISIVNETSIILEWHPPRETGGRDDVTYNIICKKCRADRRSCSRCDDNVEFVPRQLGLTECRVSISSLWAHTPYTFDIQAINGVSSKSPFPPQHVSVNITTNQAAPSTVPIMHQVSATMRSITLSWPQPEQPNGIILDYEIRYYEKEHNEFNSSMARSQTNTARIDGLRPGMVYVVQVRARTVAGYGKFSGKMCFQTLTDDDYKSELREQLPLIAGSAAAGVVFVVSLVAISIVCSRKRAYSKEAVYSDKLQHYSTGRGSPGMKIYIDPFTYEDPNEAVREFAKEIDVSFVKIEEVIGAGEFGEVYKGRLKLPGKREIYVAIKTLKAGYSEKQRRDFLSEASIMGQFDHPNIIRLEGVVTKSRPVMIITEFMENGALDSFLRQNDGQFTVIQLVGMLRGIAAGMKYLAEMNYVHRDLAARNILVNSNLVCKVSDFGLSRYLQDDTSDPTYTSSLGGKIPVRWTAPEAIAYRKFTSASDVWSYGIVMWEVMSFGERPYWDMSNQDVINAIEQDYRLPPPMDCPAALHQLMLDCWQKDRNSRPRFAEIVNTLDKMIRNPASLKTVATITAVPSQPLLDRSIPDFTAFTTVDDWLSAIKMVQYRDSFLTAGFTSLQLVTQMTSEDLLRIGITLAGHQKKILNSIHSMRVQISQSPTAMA

[10] = biological target: Mitogen-activated protein kinase 3 (Homo sapiens) (UniProt P27361); assay: Binding affinity to wild-type human full length ERK1 (M1 to P379 residues) expressed in bacterial expression system assessed as residual binding level at 1 uM by Kinomescan method relative to control
[11] = biological target: Mitogen-activated protein kinase 15 (Homo sapiens) (UniProt Q8TD08); assay: Binding affinity to wild-type human partial length ERK8 (M1 to P437 residues) expressed in bacterial expression system assessed as residual binding level at 1 uM by Kinomescan method relative to control
Mitogen-activated protein kinase 15 (Homo sapiens), sequence (Q8TD08 whole entry, the tested form may be a part): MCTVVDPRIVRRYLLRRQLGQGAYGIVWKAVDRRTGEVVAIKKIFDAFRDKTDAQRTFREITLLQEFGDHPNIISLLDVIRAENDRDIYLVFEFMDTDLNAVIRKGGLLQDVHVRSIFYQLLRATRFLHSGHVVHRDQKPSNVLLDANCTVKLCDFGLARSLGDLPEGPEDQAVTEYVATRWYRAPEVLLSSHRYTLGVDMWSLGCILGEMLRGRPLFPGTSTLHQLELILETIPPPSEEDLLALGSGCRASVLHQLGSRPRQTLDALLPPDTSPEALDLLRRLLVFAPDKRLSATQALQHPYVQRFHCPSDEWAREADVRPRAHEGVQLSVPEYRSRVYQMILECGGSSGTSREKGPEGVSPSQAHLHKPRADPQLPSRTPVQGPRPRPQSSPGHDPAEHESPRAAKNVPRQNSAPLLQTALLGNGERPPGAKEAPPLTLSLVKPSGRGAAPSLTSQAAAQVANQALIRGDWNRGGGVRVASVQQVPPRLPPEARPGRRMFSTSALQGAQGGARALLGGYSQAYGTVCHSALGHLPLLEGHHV

[12] = system: Receptor-type tyrosine-protein kinase FLT3 (Homo sapiens), P36888 [D835Y]; assay: Binding affinity to human partial length FLT3 D835Y mutant (Q580 to Y969 residues) expressed in bacterial expression system assessed as residual binding level at 1 uM by Kinomescan method relative to control
[13] = biological target: Tyrosine-protein kinase JAK3 (Homo sapiens) (UniProt P52333); assay: Binding affinity to wild-type human partial length JAK3 JH1 catalytic domain (I781 to S1124 residues) expressed in mammalian expression system assessed as residual binding level at 1 uM by Kinomescan method relative to control
[14] = biological target: LIM domain kinase 2 (Homo sapiens) (UniProt P53671); assay: Binding affinity to wild-type human full length LIMK2 (M1 to P638 residues) expressed in bacterial expression system assessed as residual binding level at 1 uM by Kinomescan method relative to control
LIM domain kinase 2 (Homo sapiens), sequence (P53671 whole entry, looked up, the tested form may be a part): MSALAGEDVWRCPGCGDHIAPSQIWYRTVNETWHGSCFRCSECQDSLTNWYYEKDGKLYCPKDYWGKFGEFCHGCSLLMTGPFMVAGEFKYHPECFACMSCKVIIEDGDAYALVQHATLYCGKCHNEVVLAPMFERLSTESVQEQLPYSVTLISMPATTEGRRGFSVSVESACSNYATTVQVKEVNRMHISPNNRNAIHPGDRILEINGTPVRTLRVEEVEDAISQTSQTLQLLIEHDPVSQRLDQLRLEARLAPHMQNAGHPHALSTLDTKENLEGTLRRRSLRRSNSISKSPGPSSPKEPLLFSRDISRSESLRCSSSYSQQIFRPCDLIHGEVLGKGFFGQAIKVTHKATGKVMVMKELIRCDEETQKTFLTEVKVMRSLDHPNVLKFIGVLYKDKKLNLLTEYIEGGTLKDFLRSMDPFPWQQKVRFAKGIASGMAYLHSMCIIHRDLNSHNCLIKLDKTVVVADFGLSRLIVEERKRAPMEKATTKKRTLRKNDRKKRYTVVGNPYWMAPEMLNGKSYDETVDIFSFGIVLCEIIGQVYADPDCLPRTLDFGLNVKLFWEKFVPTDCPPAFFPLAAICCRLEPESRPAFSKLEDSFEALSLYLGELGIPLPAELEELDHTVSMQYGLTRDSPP

[15] = system: Leucine-rich repeat serine/threonine-protein kinase 2 (Homo sapiens), Q5S007 [G2019S]; assay: Binding affinity to human partial length LRRK2 G2019S mutant (H970 to E2527 residues) expressed in mammalian expression system assessed as residual binding level at 1 uM by Kinomescan method relative to control
[16] = biological target: Maternal embryonic leucine zipper kinase (Homo sapiens, UniProt Q14680); assay: Binding affinity to wild-type human full length MELK (M1 to V651 residues) expressed in bacterial expression system assessed as residual binding level at 1 uM by Kinomescan method relative to control
[17] = biological target: Serine/threonine-protein kinase Nek7 (Homo sapiens) (UniProt Q8TDX7); assay: Binding affinity to wild-type human full length NEK7 (M1 to S302 residues) expressed in bacterial expression system assessed as residual binding level at 1 uM by Kinomescan method relative to control
[18] = system: Phosphatidylinositol 4,5-bisphosphate 3-kinase catalytic subunit alpha isoform (Homo sapiens), P42336 [C420R]; assay: Binding affinity to human partial length PIK3CA C420R mutant (R108 to N1068 residues) expressed in mammalian expression system assessed as residual binding level at 1 uM by Kinomescan method relative to control
[19] = biological target: Serine/threonine-protein kinase N1 (Homo sapiens) (UniProt Q16512); assay: Binding affinity to wild-type human partial length PKN1 (E598 to C948 residues) expressed in bacterial expression system assessed as residual binding level at 1 uM by Kinomescan method relative to control
[20] = biological target: Serine/threonine-protein kinase PknB (Mycobacterium tuberculosis) (UniProt P9WI81); assay: Binding affinity to wild-type Mycobacterium tuberculosis H37Rv partial length PKNB (M1 to G279 residues) expressed in mammalian expression system assessed as residual binding level at 1 uM by Kinomescan method relative to control
Serine/threonine-protein kinase PknB (Mycobacterium tuberculosis), sequence (P9WI81 whole entry, the tested form may be a part): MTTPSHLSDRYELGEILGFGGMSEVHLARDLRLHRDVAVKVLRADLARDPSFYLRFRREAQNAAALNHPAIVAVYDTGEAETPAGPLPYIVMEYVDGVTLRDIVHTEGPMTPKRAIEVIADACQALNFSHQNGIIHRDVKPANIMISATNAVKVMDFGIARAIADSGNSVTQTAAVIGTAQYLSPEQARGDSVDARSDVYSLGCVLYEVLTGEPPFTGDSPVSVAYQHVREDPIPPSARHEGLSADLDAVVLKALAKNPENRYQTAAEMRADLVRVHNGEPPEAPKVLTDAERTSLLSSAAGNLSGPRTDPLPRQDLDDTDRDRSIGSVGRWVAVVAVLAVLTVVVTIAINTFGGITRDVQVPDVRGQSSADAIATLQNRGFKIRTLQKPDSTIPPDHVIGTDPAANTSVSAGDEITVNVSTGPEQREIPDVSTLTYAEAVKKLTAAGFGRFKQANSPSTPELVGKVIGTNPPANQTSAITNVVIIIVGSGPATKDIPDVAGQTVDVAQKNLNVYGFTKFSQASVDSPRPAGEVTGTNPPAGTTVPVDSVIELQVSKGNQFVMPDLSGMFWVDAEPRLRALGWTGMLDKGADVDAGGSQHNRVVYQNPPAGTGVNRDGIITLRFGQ

[21] = biological target: Serine/threonine-protein kinase D2 (Homo sapiens) (UniProt Q9BZL6); assay: Binding affinity to wild-type human partial length PRKD2 (A519 to E838 residues) expressed in bacterial expression system assessed as residual binding level at 1 uM by Kinomescan method relative to control
[22] = biological target: Serine/threonine-protein kinase PRP4 homolog (Homo sapiens) (UniProt Q13523); assay: Binding affinity to wild-type human partial length PRP4 (D657 to I1007 residues) expressed in bacterial expression system assessed as residual binding level at 1 uM by Kinomescan method relative to control
Serine/threonine-protein kinase PRP4 homolog (Homo sapiens), sequence (Q13523 whole entry, the tested form may be a part): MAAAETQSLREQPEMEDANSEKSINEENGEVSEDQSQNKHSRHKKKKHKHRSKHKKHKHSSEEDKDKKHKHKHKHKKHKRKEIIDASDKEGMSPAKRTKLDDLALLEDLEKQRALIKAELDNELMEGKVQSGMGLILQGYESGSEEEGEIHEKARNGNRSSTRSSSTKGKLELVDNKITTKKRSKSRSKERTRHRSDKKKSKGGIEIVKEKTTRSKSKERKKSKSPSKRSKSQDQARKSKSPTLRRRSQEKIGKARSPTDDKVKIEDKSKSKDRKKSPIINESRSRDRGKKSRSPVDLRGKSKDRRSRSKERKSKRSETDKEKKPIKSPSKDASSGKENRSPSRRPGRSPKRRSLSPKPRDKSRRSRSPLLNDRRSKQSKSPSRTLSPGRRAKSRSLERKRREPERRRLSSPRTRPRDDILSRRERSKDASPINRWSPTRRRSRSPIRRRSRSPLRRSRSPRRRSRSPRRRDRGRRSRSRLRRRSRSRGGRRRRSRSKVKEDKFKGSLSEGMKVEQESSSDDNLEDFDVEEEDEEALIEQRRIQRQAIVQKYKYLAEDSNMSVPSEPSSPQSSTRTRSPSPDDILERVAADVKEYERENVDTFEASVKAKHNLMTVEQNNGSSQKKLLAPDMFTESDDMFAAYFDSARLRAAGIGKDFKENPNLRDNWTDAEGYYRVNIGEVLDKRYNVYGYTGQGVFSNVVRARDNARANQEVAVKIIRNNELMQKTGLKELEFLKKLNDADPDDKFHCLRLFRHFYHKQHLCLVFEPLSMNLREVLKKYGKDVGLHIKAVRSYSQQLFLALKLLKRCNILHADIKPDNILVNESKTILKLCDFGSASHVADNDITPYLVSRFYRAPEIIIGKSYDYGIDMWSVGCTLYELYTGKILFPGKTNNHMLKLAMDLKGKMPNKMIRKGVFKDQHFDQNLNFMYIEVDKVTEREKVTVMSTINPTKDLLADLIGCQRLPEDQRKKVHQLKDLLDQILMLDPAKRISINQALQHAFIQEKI

[23] = system: Proto-oncogene tyrosine-protein kinase receptor Ret (Homo sapiens), P07949 [V804M]; assay: Binding affinity to human partial length RET V804M mutant (E713 to D1014 residues) expressed in bacterial expression system assessed as residual binding level at 1 uM by Kinomescan method relative to control
[24] = biological target: Serine/threonine-protein kinase TBK1 (Homo sapiens) (UniProt Q9UHD2); assay: Binding affinity to wild-type human full length TBK1 (M1 to L729 residues) expressed in mammalian expression system assessed as residual binding level at 1 uM by Kinomescan method relative to control

CC(C)Nc1sc(C(=O)c2ccc(Cl)s2)c(N)c1C#N
Activity [1]: 100%
Activity [2]: 58%
Activity [3]: 74%
Activity [4]: 94%
Activity [5]: 100%
Activity [6]: 72%
Activity [7]: 100%
Activity [8]: 83%
Activity [9]: 96%
Activity [10]: 95%
Activity [11]: 82%
Activity [12]: 59%
Activity [13]: 80%
Activity [14]: 100%
Activity [15]: 79%
Activity [16]: 14%
Activity [17]: 84%
Activity [18]: 100%
Activity [19]: 56%
Activity [20]: 95%
Activity [21]: 100%
Activity [22]: 100%
Activity [23]: 94%
Activity [24]: 97%
